For two molecules, GI50 and TGI results are on record in PubChem BioAssay (NCI).

Common to all, as to assay: inhibition of tumour cell growth, NCI panel, 48 h
Assay [1] deals with DU-145 prostate.
In assay [2] the test system is HOP-62 NSCLC.
In assay [3] the test system is SR leukemia.
Assay [4] has as its system UACC-257 melanoma.
Assay [5] relates to SK-MEL-5 melanoma.
Assay [6] has as its system HOP-92 NSCLC.
Assay [7] relates to NCI-H23 lung.
For assay [8], the system named is A498 renal.
Assay [9] has as its system HCC-2998 colon.
In assay [10] the test system is HL-60(TB) leukemia.

Structures are written as SMILES.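 48-hour exposure; five concentrations; linearly interpolated endpoints. GI50 = concentration required for 50% inhibition of growth. Definition used: TGI = concentration required for complete inhibition of growth.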 Bounds are passed on as bounds.

`COc1ccc(C(=O)Cn2c(C(=O)c3ccc(Cl)cc3)nc(-c3ccccc3)c2-c2ccccc2)cc1`: the GI50 in assay [1] is above 100 µM; in assay [2], above 100 µM; in assay [3], above 100 µM; in assay [4], above 100 µM; in assay [5] it was above 100 µM; in assay [6], 7.43 µM. Further, the GI50 was above 100 µM in assay [7], 34.9 µM in [8], above 100 µM in [9] and above 100 µM in [10]. For the same molecule, the TGI in assay [1] was above 100 µM; in assay [2], above 100 µM; in assay [3], above 100 µM; in assay [4] it was above 100 µM; in [5], above 100 µM; in assay [6], 83.1 µM. In addition, the TGI in assay [7], in assay [8], in assay [9] and in [10] was above 100 µM each time.

Consider `COc1ccc(C(=O)c2ccccc2)c(O)c1`, for which the GI50 in assay [1] is 80 µM; in [2], above 100 µM; in [3], 45.7 µM; in assay [4] it was above 100 µM; in assay [5], 37.9 µM; in assay [6] it was 78.5 µM. In addition, the GI50 is above 100 µM in [7], 16 µM in [8], above 100 µM in [9] and 96.9 µM in [10]. In addition, the TGI in assay [1], in assay [2], in assay [3], in [4], in [5] and in assay [6] was above 100 µM throughout. The TGI in [7], in assay [8], in [9] and in [10] was above 100 µM in each case.
